Experiment [1] relates to CD8+ T cells. Put plainly: In vitro immunogenicity: T-cell priming with aAPCs loaded with peptide/MHC and anti-CD28, pMHC multimer readout. The following applies: for Wells positive [%]: HLA-A*02 restricted peptides; for wells: percentage of positive wells. It counts as cell-based, human. How it is done: In an aspect, the peptides are pre-screened for immunogenicity before being included in the warehouse. By way of example, and not limitation, the immunogenicity of the peptides included in the warehouse is determined by a method comprising in vitro T-cell priming through repeated stimulations of CD8+ T cells from healthy donors with artificial antigen presenting cells loaded with peptide/MHC complexes and anti-CD28 antibody.
In order to obtain information regarding the immunogenicity of the TUMAPs of the present invention, the inventors performed investigations using an in vitro T-cell priming assay based on repeated stimulations of CD8+ T cells with artificial antigen presenting cells (aAPCs) loaded with peptide/MHC complexes and anti-CD28 antibody.
In order to perform in vitro stimulations by artificial antigen presenting cells loaded with peptide-MHC complex (pMHC) and anti-CD28 antibody, the inventors first isolated CD8+ T cells from fresh HLA-A*02 leukapheresis products via positive selection using CD8 microbeads (Miltenyi Biotec, Bergisch-Gladbach, Germany) of healthy donors obtained from the University clinics Mannheim, Germany, after informed consent.
PBMCs and isolated CD8+ lymphocytes were incubated in T-cell medium (TCM) until use consisting of RPMI-Glutamax (Invitrogen, Karlsruhe, Germany) supplemented with 10% heat inactivated human AB serum (PAN-Biotech, Aidenbach, Germany), 100 U/ml Penicillin/100 μg/ml Streptomycin (Cambrex, Cologne, Germany), 1 mM sodium pyruvate (CC Pro, Oberdorla, Germany), 20 μg/ml Gentamycin (Cambrex). 2.5 ng/ml IL-7 (PromoCell, Heidelberg, Germany) and 10 U/ml IL-2 (Novartis Pharma, Nürnberg, Germany) were also added to the TCM at this step.
Generation of pMHC/anti-CD28 coated beads, T-cell stimulations and readout was performed in a highly defined in vitro system using four different pMHC molecules per stimulation condition and 8 different pMHC molecules per readout condition.
The purified co-stimulatory mouse IgG2a anti human CD28 Ab 9.3 (Jung et al., 1987) was chemically biotinylated using Sulfo-N-hydroxysuccinimidobiotin as recommended by the manufacturer (Perbio, Bonn, Germany). Beads used were 5.6 μm diameter streptavidin coated polystyrene particles (Bangs Laboratories, Illinois, USA).
pMHC used for positive and negative control stimulations were A*0201/MLA-001 (peptide […] (SEQ ID NO. 664) from modified Melan-A/MART-1) and A*0201/DDX5-001 ([…] from DDX5, SEQ ID NO. 665), respectively.
800.000 beads/200 μl were coated in 96-well plates in the presence of 4×12.5 ng different biotin-pMHC, washed and 600 ng biotin anti-CD28 were added subsequently in a volume of 200 μl. Stimulations were initiated in 96-well plates by co-incubating […] CD8+ T cells with 2×10^5 washed coated beads in 200 μl TCM supplemented with 5 ng/ml IL-12 (PromoCell) for 3 days at 37° C. Half of the medium was then exchanged by fresh TCM supplemented with 80 U/ml IL-2 and incubating was continued for 4 days at 37° C. This stimulation cycle was performed for a total of three times. For the pMHC multimer readout using 8 different pMHC molecules per condition, a two-dimensional combinatorial coding approach was used as previously described (Andersen et al., 2012) with minor modifications encompassing coupling to 5 different fluorochromes. Finally, multimeric analyses were performed by staining the cells with Live/dead near IR dye (Invitrogen, Karlsruhe, Germany), CD8-FITC antibody clone SK1 (BD, Heidelberg, Germany) and fluorescent pMHC multimers. For analysis, a BD LSRII SORP cytometer equipped with appropriate lasers and filters was used. Peptide specific cells were calculated as percentage of total CD8+ cells. Evaluation of multimeric analysis was done using the FlowJo software (Tree Star, Oregon, USA). In vitro priming of specific multimer+ CD8+ lymphocytes was detected by comparing to negative control stimulations. […]

The target in experiment [2] is HLA-A*02:01 (Homo sapiens, UniProt P04439, D140Y/D185E/D98H/E176V/E277Q/G131W/G231S/I119V/I121R/I166T/I218V/L300P/L318F/N151K/N90K/P208A/P217A/Q86G/Q94H/R138H/R169H/T345S). Nature of the experiment: MHC binding assay (UV-ligand exchange, beta2m ELISA, peptide exchange yield). The conditions noted are these: binding of HLA-class I restricted peptides to HLA-A*02:01, ranged by peptide exchange yield (UV-ligand exchange, β2m ELISA). Put shortly: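 Peptide–HLA-A*02:01 complexes made by UV-mediated exchange of a photocleavable peptide with the test peptide. Exchange products diluted 100-fold on streptavidin-coated plates, 1 h at 37°C, then HRP anti-β2m 1 h at 37°C; TMB read at 450 nm to give exchange yield.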
Background: In an ELISA, binding on a coated surface is turned into a signal by an enzyme label.

Regarding “118 (KLIDNNINV; listed as Homo sapiens) [compound 118]”, the “Wells positive [%]” value in experiment [1] is listed as “″+″ (<20% = +)”. The Peptide exchange result in experiment [2] was “″+++″ (≥50% = +++)”. Take “659 (ILFPDIIARA; listed as Homo sapiens) [compound 659]”: the wells entry in experiment [1] (HLA class I peptides) is reported as “+ (<20% = +)”.

With “384 (ILFANPNIFV; listed as Homo sapiens) [compound 384]”, the “Wells positive [%]” value in experiment [1] is on record as “″+″ (<20% = +)”. Moreover, the Peptide exchange result in experiment [2] is recorded as “″+++″ (≥50% = +++)”. Taken in the same sequence, the figures for “141 (YLDFSNNRL; listed as Homo sapiens) [compound 141]” were “″+″ (<20% = +)” and “″++″ (≥20% = ++)”. “60 (SLTIDGIYYV; listed as Homo sapiens) [compound 60]”: in experiment [1], the “Wells positive [%]” value is “″++++″ (> = 70% = ++++)”. The Peptide exchange result in experiment [2] was “″++++″ (≥75% = ++++)”. Regarding “166 (YLNHLEPPV; listed as Homo sapiens) [compound 166]”, in experiment [1], the “Wells positive [%]” value is listed as “″++++″ (> = 70% = ++++)”. In addition, in experiment [2], the Peptide exchange result was “″+++″ (≥50% = +++)”. “489 (KMWEELPEVV; listed as Homo sapiens) [compound 489]”: the “Wells positive [%]” value in experiment [1] is recorded as “″+″ (<20% = +)”. For the same substance, the Peptide exchange result in experiment [2] is “″+++″ (≥50% = +++)”. Taken in the same sequence, the figures for “11 (KIFEMLEGV; listed as Homo sapiens) [compound 11]” were “″+″ (<20% = +)” and “″+++″ (≥50% = +++)”. Turning to “150 (RLWEEGEELEL; listed as Homo sapiens) [compound 150]”, the “Wells positive [%]” value in experiment [1] is “″+″ (<20% = +)”. The Peptide exchange entry in experiment [2] is reported as “″+++″ (≥50% = +++)”. With “663 (KIQEMQHFL; listed as Homo sapiens) [compound 663]”, the wells result in experiment [1] (HLA class I peptides) is given as “+ (<20% = +)”.

As to “662 (KIQEILTQV; listed as Homo sapiens) [compound 662]”, the wells entry in experiment [1] (HLA class I peptides) was “+ (<20% = +)”. As for “603 (FLIEPEHVNTV; listed as Homo sapiens) [compound 603]”, the “Wells positive [%]” value in experiment [1] is listed as “″+″ (<20% = +)”. Moreover, the Peptide exchange result in experiment [2] is recorded as “″++″ (≥20% = ++)”.

For “247 (VLLPNDLLEKV; listed as Homo sapiens) [compound 247]”, the “Wells positive [%]” value in experiment [1] is given as “″+″ (<20% = +)”. Also, in experiment [2], the Peptide exchange entry is “″+++″ (≥50% = +++)”. Consider “499 (KIFDIDEAEEGV; listed as Homo sapiens) [compound 499]”, for which the “Wells positive [%]” value in experiment [1] is “″+″ (<20% = +)”. Further, the Peptide exchange entry in experiment [2] is reported as “″++″ (≥20% = ++)”. “3 (SLASKLTTL; listed as Homo sapiens) [compound 3]”: the “Wells positive [%]” value in experiment [1] was “″+″ (<20% = +)”. Further, in experiment [2], the Peptide exchange entry is reported as “″++++″ (≥75% = ++++)”. Regarding “319 (SLEPQIQPV; listed as Homo sapiens) [compound 319]”, in experiment [1], the “Wells positive [%]” value was “″+″ (<20% = +)”. In addition, in experiment [2], the Peptide exchange entry is reported as “″++″ (≥20% = ++)”. Take “460 (AMLEKNYKL; listed as Homo sapiens) [compound 460]”: the “Wells positive [%]” value in experiment [1] is listed as “″+″ (<20% = +)”. Further, the Peptide exchange result in experiment [2] is on record as “″++++″ (≥75% = ++++)”.

As for “652 (TLWYRAPEV; listed as Homo sapiens) [compound 652]”, the donors result in experiment [1] (HLA class I peptides, percentage of positive donors) was “++++ (> = 70% = ++++)”. As for “199 (ALQDVPLSSV; listed as Homo sapiens) [compound 199]”, the “Wells positive [%]” value in experiment [1] is on record as “″+″ (<20% = +)”. In addition, in experiment [2], the Peptide exchange result was “″+++″ (≥50% = +++)”. For “113 (GLLPTPLFGV; listed as Homo sapiens) [compound 113]” the same measures were “″+″ (<20% = +)” and “″+++″ (≥50% = +++)”.

As to “56 (KLYEGIPVLL; listed as Homo sapiens) [compound 56]”, the “Wells positive [%]” value in experiment [1] is “″+″ (<20% = +)”. Besides, the Peptide exchange result in experiment [2] is “″++++″ (≥75% = ++++)”. As to “36 (YVLEDLEVTV; listed as Homo sapiens) [compound 36]”, the “Wells positive [%]” value in experiment [1] is “″+″ (<20% = +)”. The Peptide exchange entry in experiment [2] is given as “″++″ (≥20% = ++)”.

In the case of “38 (FLLEDDIHVS; listed as Homo sapiens) [compound 38]”, the “Wells positive [%]” value in experiment [1] was “″+″ (<20% = +)”. In addition, in experiment [2], the Peptide exchange result is listed as “″+++″ (≥50% = +++)”. For the substance “48 (ALAELYEDEV; listed as Homo sapiens) [compound 48]”, the “Wells positive [%]” value in experiment [1] is “″+″ (<20% = +)”. For the same substance, in experiment [2], the Peptide exchange entry is recorded as “″+++″ (≥50% = +++)”. In the case of “79 (SLFIGEKAVLL; listed as Homo sapiens) [compound 79]”, the “Wells positive [%]” value in experiment [1] is reported as “″+″ (<20% = +)”. In addition, the Peptide exchange result in experiment [2] was “″+++″ (≥50% = +++)”.

In the case of “283 (ALYIGDGYVIHLA; listed as Homo sapiens) [compound 283]”, the wells result in experiment [1] (HLA class I peptides) is reported as “+ (<20% = +)”. Also, the Peptide exchange entry in experiment [2] is “″+++″ (≥50% = +++)”. Consider “8 (FTLGNVVGMYL; listed as Homo sapiens) [compound 8]”, for which the “Wells positive [%]” value in experiment [1] is “″+″ (<20% = +)”. Moreover, the Peptide exchange result in experiment [2] is “″++++″ (≥75% = ++++)”. Take “443 (GLWEIENNPTV; listed as Homo sapiens) [compound 443]”: the “Wells positive [%]” value in experiment [1] is “″+″ (<20% = +)”. For the same substance, the Peptide exchange result in experiment [2] is given as “″+++″ (≥50% = +++)”. As to “143 (LLLDITPEI; listed as Homo sapiens) [compound 143]”, the “Wells positive [%]” value in experiment [1] is reported as “″+″ (<20% = +)”. The Peptide exchange result in experiment [2] is given as “″++++″ (≥75% = ++++)”. Taken in the same sequence, the figures for “2 (SLLEADPFL; listed as Homo sapiens) [compound 2]” were “″+″ (<20% = +)” and “″+++″ (≥50% = +++)”. Turning to “511 (FLDPYCSASV; listed as Homo sapiens) [compound 511]”, in experiment [1], the “Wells positive [%]” value is “″+″ (<20% = +)”. The Peptide exchange result in experiment [2] was “″++″ (≥20% = ++)”.
